The values below come from patent publication US20210059983A1, “METHODS AND MATERIALS FOR IDENTIFYING AND TREATING CANCER” (Mayo Foundation for Medical Education and Research, priority 2018, published 2021).

“Also recorded” adds a separate entry of the source.

In assay [1] the target is recombinant TET-2 protein (Homo sapiens, UniProt Q6N021). In words: Fluorescence quenching of recombinant TET-2 protein (Stern-Volmer). Type of assay: binding. On the procedure: The step width was 1 nm, and the integration time was 1 second.
All protein solutions contained 0.5 μM TET2 in PBS buffer.
In this equation, KD was the quenching constant, and [Q] was a defined concentration of ascorbic acid. F^0 and F were the fluorescence intensities (at 328 nm) in absence and presence of ascorbic acid, respectively.

Assay [2] relates to 786-O cells. The experiment in a line: Flow cytometry for cell cycle analysis (PI). Type of assay: cell-based. The conditions noted are these: high dose AA + catalase, 96 hours. On the procedure:
(§1) 786-O cells were treated with high dose ascorbic acid (+catalase), and apoptosis and cell cycle dynamics were studied at the 96 hour time point. Cells were washed with Annexin buffer solution and stained with both propidium iodide (PI) and FITC-Annexin V (Life Technologies), and assayed on a BD FACS Calibur flow cytometer (BD Biosciences). Apoptosis results were analyzed with BD CellQuest software. For cell cycle analysis, cells were fixed with 70% cold ethanol and subsequently analyzed after PI staining. Analysis was performed using FlowJo software.
A general note: In flow cytometry, cells or beads pass a laser one at a time.

Assay [3] has as its system 786-O cells. The experiment in a line: Flow cytometry for apoptosis (Annexin V/PI). Type of assay: cell-based. The conditions noted are these: AA 1 mM + catalase, assay at 96 hour time point. On the procedure:
as §1

Assay [4] has as its system ccRCC cells (786 and 769). The experiment in a line: Genome wide DNA methylation analysis using the HELP assay. Type of assay: cell-based, human. On the procedure: The HELP assay was carried out as described elsewhere ([…] et al., Nucleic Acids Res., 41(16):e157 (2013)). Intact DNA of high molecular weight was corroborated by electrophoresis on 1% agarose gel in all cases. One microgram of genomic DNA was digested overnight with either HpaII or MspI (NEB, Ipswich, Mass.). The following day, the reactions were extracted once with phenol-chloroform and resuspended in 11 μL of 10 mM Tris-HCl pH 8.0. The digested DNA was used to set up an overnight ligation of the JHpaII adapter using T4 DNA ligase. The adapter-ligated DNA was used to carry out the PCR amplification of the HpaII and MspI-digested DNA as described elsewhere ([…] et al., Nucleic Acids Res., 41(16):e157 (2013)). Both amplified fractions were submitted for labeling and hybridization onto a human hg18 custom-designed oligonucleotide array (50-mers) covering 1.3 million HpaII amplifiable fragments (HAF). All microarray hybridizations were subjected to extensive quality control. Uniformity of hybridization was evaluated using a modified version of an algorithm adapted for the NimbleGen platform, and any hybridization with strong regional artifacts was discarded. Bioinformatic analysis was done as described elsewhere (Bhattacharyya et al., Nucleic Acids Res., 41(16):[…] (2013); Suzuki et al., Genome Biol., 11(4):[…] (2010)).

Assay [5] relates to TET enzymatic activity in RCC cells (769P and 7860). In words: In-vitro TET enzymatic activity of nuclear extracts from AA treated RCC cells (ELISA-based Epigenase 5mC Hydroxylase TET Activity kit). The conditions noted are these: pH neutralized AA, ccRCC cell lines 769P and 7860, short exposure then 24 hour incubation in fresh media. On the procedure: Cells were treated with different concentrations of pH neutralized AA, with or without catalase. Exposure time to 1 mM AA was 2 hours (taking into account the plasma concentration curve with intravenous (i.v.) AA and potential differences between plasma concentrations with that of tumor microenvironment) followed by the cells being washed and incubated in fresh media for 24 hours. Nuclear protein was then isolated from cells using the EpiQuik nuclear extraction kit (Epigentek Group Inc, Farmingdale, N.Y., USA), according to the manufacturer's instructions. TET enzymatic activity was measured by using the Enzyme Linked ImmunoSorbent Assay (ELISA)-based Epigenase 5mC Hydroxylase TET Activity/Inhibition Assay Kit (Fluorometric) according to the manufacturer's instructions. This technique relied on the conversion of methylated products at the bottom of the wells to hydroxymethylated products by the TET enzyme present in the nuclear extract. Thus, the amount of hydroxymethylated products formed was a measure of the TET activity of the nuclear extract harvested from the cells being tested. Incubation time of nuclear lysates was 90 minutes. Six micrograms of nuclear lysate was used per well for measurement of TET activity.
(In general: An ELISA detects its analyte on a solid surface through an enzyme-linked reagent.)

Assay [6] concerns RCC cells (786O) xenografted. The experiment in a line: In vivo xenograft study with AA. Further details: species or system immunodeficient NSG mice. The note with it: IV AA 1 g/kg per day, 5 days/week, 5 weeks, vs vehicle; n=10 per cohort. On the procedure: RCC cells (786O) were xenografted into immunodeficient NSG mice. After tumors were established, treatment was initiated with tail vein injections: IV AA at 1 g/kg/d or vehicle over 5 weeks (5 days dosing/week), and tumor measurements were conducted.

The test system of the next assay is RCC cells 769P. The experiment in a line: Measurement of 5hmC levels by LC-ESI-MS/MS. Type of assay: cell-based. The note with it: 769P cells after AA treatment.
The subject of another assay is RCC (786O) cells. In words: Cell viability (Cell Titer Blue). Type of assay: cell-based. On the procedure:
Cells were incubated at varying concentrations and at various time periods with L-ascorbic acid (Sigma-Aldrich, Cat #50-81-7) with or without catalase at 100 μg/mL (Sigma-Aldrich, Cat #9001-05-2). Viability was assessed by addition of Cell Titer Blue (Promega, Madison, Wis., USA) and measured via Fluostar Omega Microplate reader (BMG Labtech, Offenburg, Germany). […] A protocol modification to counter this interference was done as described elsewhere (Shenoy et al., Laboratory Investigation, 97:494-497 (2017)) and used in this study.

Where [7] appears, read: 0.5 μM TET-2 alone in PBS, 20° C.

Consider `O=C(O)CCC(=O)C(=O)O` [2OG], for which, in assay [1] (setting [7]), the “quenching efficiency (Stern-Volmer constant +/−SD)” value was determined as 15.66 ± 0.12 M⁻¹.
Regarding `O=C1O[C@H]([C@@H](O)CO)C(O)=C1O` [AA, L-ascorbic acid], the “cell cycle (G0/G1 arrest)” value in the assay with 786-O cells [2] is recorded as “significantly arrested in G0/G1 stage; also recorded: significant increase in G0/G1 arrest”. Further, in the assay on 786-O cells [3], the apoptosis entry is listed as “increased apoptosis; also recorded: significant increase in apoptosis”. Moreover, in assay [4] (786 and 769 ccRCC cells after AA treatment), the Smad6 promoter methylation result was “demethylated”. For the same compound, the “global cytosine methylation (HELP assay)” value in assay [4] (AA treated vs control ccRCC cells) was “increased hypomethylation; also recorded: loss of methylation”. For the same compound, the TET enzymatic activity entry in assay [5] is “increased after treatment; also recorded: increase in TET enzymatic activity”. Moreover, the “quenching efficiency (Stern-Volmer constant +/−SD)” value was determined as 21.46 ± 0.70 M⁻¹ in assay [1] (setting [7]); 18.37 ± 0.80 M⁻¹ in assay [1] (0.5 μM TET-2 in presence of 23 μM 2OG); 17.34 ± 0.87 M⁻¹ in assay [1] (0.5 μM TET-2 in presence of 2OG and L2HG (23 μM each per FIG. 5D legend)); 22.17 ± 0.68 M⁻¹ in assay [1] (0.5 μM TET-2 in presence of L2HG (100 μM per FIG. 5D legend)). In addition, the “reduction of the fluorescence emission signal” value in assay [1] (132 μM AA, 0.5 μM TET-2, emission at 328 nm, excitation 280 nm, maximal quenching) amounted to 90%. In assay [6], the tumor growth entry was “significantly reduced rate of ccRCC growth; also recorded: significantly delayed tumor growth”. Also, in the assay on RCC cells 769P, the “5hmC (%5hmC) by LC-ESI-MS/MS” value is given as “significantly increased; also recorded: increase in 5hmC”. Further, the “viability, acute (short term exposure)” value with RCC (786O) cells (high dose AA (millimolar), 24 hours, without catalase) is reported as “Acute loss in viability”. Also, in the assay with RCC (786O) cells (high dose AA with catalase, longer-term exposure), the “viability at longer time points” value is “reduced viability; also recorded: dose dependent and progressive loss of viability”. Besides, the “acute loss in viability with catalase co-treatment” value in the assay with RCC (786O) cells (high dose AA, 24 hours, with catalase 100 μg/mL) is recorded as “reversed by catalase treatment”.
